Results: patent US20110054039A1, “USE OF ALKYL SULFATES OR SULFONATES AGAINST PROPIONIBACTERIUM ACNES” (priority 2008, published 2011)
Like-named read-outs stand apart in the source and are kept apart here. One block for each molecule: values may come before it.

Assays:
Format in all cases: cell-based
[1] = test system: Propionibacterium acnes NCTC 737; assay: Minimum Inhibitory Concentration (MIC) assay, broth microdilution; conditions: for MIC: P. acnes NCTC 737, Wilkins-Chalgren broth pH 6.0, anaerobic, 37° C., 72 hours
Experimental: (§1) The test micro-organism represented the cutaneous propionibacteria. […] The propionibacteria are clinically significant due to their involvement in acne. This is a very common, complex and multi-factorial skin disease in which P. acnes and other Propionibacterium spp. […] They are also opportunistic pathogens in compromised hosts.
(§2) The propionibacteria were cultured and maintained on Wilkins-Chalgren Anaerobe Medium (agar and broth) at pH 6.0; all cultures were incubated anaerobically at 37° C. for 72 hours.
This is a standard international method for quantitatively assessing the antimicrobial activity of a compound in a liquid medium. […] The culture media were as described above.
The wells were inoculated with a liquid suspension of freshly grown micro-organism and incubated under the conditions described above. After incubation, the microtitre plate was examined visually (with the aid of a light box) for cloudiness in each well, which would indicate microbial growth. The MIC value was recorded as the lowest concentration of test compound required to inhibit microbial growth, ie the lowest concentration for which the liquid in the well remained clear.
The assays included both negative (culture medium with no micro-organisms) and positive (culture medium plus diluting solvent plus micro-organism) controls.
(§3) MIC, MBC and DDA assays, as described above, were carried out using as the test compound sodium n-tetradecyl sulphate (STS, ex Sigma Aldrich, UK), dissolved in distilled water. All the experiments were conducted in triplicate. For the DDA experiments, 200 μg of the test compound was loaded onto each disc.
(§4) The MIC/MBC experiments were conducted in triplicate, with the exception of those for SDS and ADS which were conducted in duplicate. The DDAs were performed either in triplicate, in which case standard deviations are quoted in parentheses, or as a single replicate. For the DDA experiments, 200 μg of the test compound was loaded onto each disc.

[2] = test system: Propionibacterium acnes NCTC 737; assay: Minimum Biocidal (Bactericidal) Concentration (MBC) assay; conditions: P. acnes NCTC 737; for MBC: sub-culture on antibiotic-free agar after MIC assay
Experimental: as §1, §2
This assay, normally carried out after an MIC assay, determines the minimum concentration of a compound that is lethal to the micro-organism being tested.
These samples were then individually sub-cultured on antibiotic-free agar medium, under the incubation conditions described above. Following incubation they were examined visually for microbial growth.
as §3, §4

[3] = test system: Propionibacterium acnes NCTC 737; assay: Disc Diffusion Assay (DDA); conditions: P. acnes NCTC 737, 200 μg of test compound per disc; for zone of inhibition at 200 µg/disc: Cutibacterium acnes, NCTC737, read-out: DDA (diameter of zone of inhibition)
Experimental: as §1, §2
This is an internationally recognised standard method for qualitatively assessing the antimicrobial activity of a compound.
(§5) A sterile paper disc was impregnated with a sample of the test compound in a suitable solvent and 30 minutes allowed for the solvents to evaporate (where possible). The disc was then placed on an agar plate onto which the test micro-organism had been inoculated. The plate was then incubated under the conditions described above, following which it was examined visually for signs of microbial growth. […] The diameter of this zone of ‘inhibition’ was measured using a ProtoCOL™ automated zone sizer (Synbiosis, Cambridge, UK).
as §3, §4

[4] = test system: Propionibacterium acnes NCTC 737; assay: Supplemented Disc Diffusion Assay (agar with salt or lipid); conditions: P. acnes NCTC 737, 200 μg per disc; for zone of inhibition at 200 µg/disc: Cutibacterium acnes, NCTC737, 72 h
Experimental: as §1, §2, §5
Performance under these conditions can provide a more reliable indication of activity on topical application.
as §3, §4

[5] = Cutibacterium acnes, NCTC737, read-out: MIC
[6] = Cutibacterium acnes, NCTC737, read-out: MBC
[7] = agar supplemented with sodium chloride (100 mM), read-out: DDA + salt
[8] = agar supplemented with triolein at 1% v/v, read-out: DDA + lipid
[9] = agar supplemented with sodium chloride (100 mM)
[10] = agar supplemented with triolein at 1% v/v

- MIC [1, 5]: 0.98 µg/mL
Molecule: CCCCCCCCCCCCCCCS(=O)(=O)O.[Na] [Sodium 1-pentadecane sulphonic acid, sodium 1-pentadecane sulphonic acid]
- MBC [2, 6]: 3.9 µg/mL
- MIC/MBC ratio [2]: 0.25
- zone of inhibition at 200 µg/disc [3]: 11.8 mm
- zone of inhibition at 200 µg/disc [4, 7]: 12.1 mm
- zone of inhibition at 200 µg/disc [4, 8]: 0 mm

- MIC [1]: >250 µg/mL
Molecule: CCCS(=O)(=O)[O-].O.[Na+] [Sodium 1-propanesulphate monohydrate, sodium 1-propanesulphate monohydrate]
- MBC [2]: >250 µg/mL
- DDA (diameter of zone of inhibition) [3]: 0.00 mm
- DDA + salt [4, 9]: 0.00 mm
- DDA + lipid [4, 10]: 0.00 mm

- MIC [1, 5]: 3.9 µg/mL
Molecule: CCCCCCCCCCCCCCS(=O)(=O)O.[Na] [Sodium 1-tetradecane sulphonic acid, sodium 1-tetradecane sulphonic acid]
- MBC [2, 6]: 15.6 µg/mL
- MIC/MBC ratio [2]: 0.25
- zone of inhibition at 200 µg/disc [3]: 11.2 mm
- zone of inhibition at 200 µg/disc [4, 7]: 12.4 mm
- zone of inhibition at 200 µg/disc [4, 8]: 9.61 mm

- MIC [1, 5]: 15.6 µg/mL
Molecule: CCCCCCCCCCCCCS(=O)(=O)O.[Na] [Sodium 1-tridecane sulphonic acid, sodium 1-tridecane sulphonic acid]
- MBC [2, 6]: 31.2 µg/mL
- MIC/MBC ratio [2]: 0.5
- zone of inhibition at 200 µg/disc [3]: 28.6 mm
- zone of inhibition at 200 µg/disc [4, 7]: 29.3 mm
- zone of inhibition at 200 µg/disc [4, 8]: 27.4 mm

- MIC [1, 5]: 250 µg/mL
Molecule: CCCCCCCCCCOS(=O)(=O)[O-].[Na+] [Sodium decyl sulphate, sodium decyl sulphate]
- MBC [2, 6]: > 250 µg/mL
- MIC/MBC ratio [2]: <1
- zone of inhibition at 200 µg/disc [3]: 0 mm
- zone of inhibition at 200 µg/disc [4, 7]: 0 mm
- zone of inhibition at 200 µg/disc [4, 8]: 0 mm

Molecule: CCCCCCCCCCCCOS(=O)(=O)[O-].[Na+] [Sodium dodecyl sulphate (SDS), sodium dodecyl sulphate]
- MIC [1, 5]: 31.2 µg/mL
- MBC [2, 6]: 62.5 µg/mL
- MIC/MBC ratio [2]: 0.5
- zone of inhibition at 200 µg/disc [3]: 30.7 mm
- zone of inhibition at 200 µg/disc [4, 7]: 28.2 mm
- zone of inhibition at 200 µg/disc [4, 8]: 28.2 mm

- MIC [1, 5]: 0.98 µg/mL
Molecule: CCCCCCCCCCCCCCCCOS(=O)(=O)[O-].[Na+] [Sodium hexadecyl sulphate, sodium hexadecyl sulphate]
- MBC [2, 6]: 1.95 µg/mL
- MIC/MBC ratio [2]: 0.5
- zone of inhibition at 200 µg/disc [3]: 36.3 mm
- zone of inhibition at 200 µg/disc [4, 7]: 32.4 mm
- zone of inhibition at 200 µg/disc [4, 8]: 39.8 mm

- MIC [1, 5]: > 250 µg/mL
Molecule: CCCCCCOS(=O)(=O)[O-].[Na+] [Sodium n-hexyl sulphate, sodium n-hexyl sulphate]
- MBC [2, 6]: > 250 µg/mL
- zone of inhibition at 200 µg/disc [3]: 0 mm
- zone of inhibition at 200 µg/disc [4, 7]: 0 mm
- zone of inhibition at 200 µg/disc [4, 8]: 0 mm

- MIC [1, 5]: 250 µg/mL
Molecule: CCCCCCCCCOS(=O)(=O)[O-].[Na+] [Sodium n-nonyl sulphate, sodium n-nonyl sulphate]
- MBC [2, 6]: 250 µg/mL
- MIC/MBC ratio [2]: 1
- zone of inhibition at 200 µg/disc [3]: 0 mm
- zone of inhibition at 200 µg/disc [4, 7]: 0 mm
- zone of inhibition at 200 µg/disc [4, 8]: 0 mm

- MIC [1, 5]: > 250 µg/mL
Molecule: CCCCCOS(=O)(=O)[O-].[Na+] [Sodium n-pentyl sulphate, sodium n-pentyl sulphate]
- MBC [2, 6]: > 250 µg/mL
- zone of inhibition at 200 µg/disc [3]: 0 mm
- zone of inhibition at 200 µg/disc [4, 7]: 0 mm
- zone of inhibition at 200 µg/disc [4, 8]: 0 mm

- MIC [1, 5]: 0.98 µg/mL
Molecule: CCCCCCCCCCCCCCOS(=O)(=O)O [Sodium n-tetradecyl sulphate, sodium n-tetradecyl sulphate]
- antibacterial activity against P. acnes NCTC 737 (in words) ([1]; summary of MIC, MBC and DDA results): highly active
- MBC [2, 6]: 0.98 µg/mL
- MIC/MBC ratio [2]: 1
- zone of inhibition at 200 µg/disc [3]: 29.9 mm
- DDA (diameter of zone of inhibition) ([3]; sulphate): 29.87 mm
- zone of inhibition at 200 µg/disc [4, 7]: 31.6 mm
- zone of inhibition at 200 µg/disc [4, 8]: 33.7 mm
- DDA + salt ([4]; agar supplemented with sodium chloride (100 mM), sulphate): 31.62 mm
- DDA + lipid ([4]; agar supplemented with triolein at 1% v/v, sulphate): 33.67 mm

- MIC [1, 5]: 31.2 µg/mL
Molecule: CCCCCCCCCCCOS(=O)(=O)[O-].[Na+] [Sodium n-undecyl sulphate, sodium n-undecyl sulphate]
- MBC [2, 6]: 62.5 µg/mL
- MIC/MBC ratio [2]: 0.5
- zone of inhibition at 200 µg/disc [3]: 17.3 mm
- zone of inhibition at 200 µg/disc [4, 7]: 19.9 mm
- zone of inhibition at 200 µg/disc [4, 8]: 17.7 mm

- MIC [1, 5]: 1.95 µg/mL
Molecule: CCCCCCCCCCCCCCCCCCOS(=O)(=O)[O-].[Na+] [Sodium octadecyl sulphate, sodium octadecyl sulphate]
- MBC [2, 6]: 62.5 µg/mL
- MIC/MBC ratio [2]: 0.03
- zone of inhibition at 200 µg/disc [3]: 9.41 mm
- zone of inhibition at 200 µg/disc [4, 7]: 9.3 mm
- zone of inhibition at 200 µg/disc [4, 8]: 9.92 mm

- MIC [1, 5]: > 250 µg/mL
Molecule: CCCCCCCCOS(=O)(=O)[O-].[Na+] [Sodium octyl sulphate, sodium octyl sulphate]
- MBC [2, 6]: > 250 µg/mL
- zone of inhibition at 200 µg/disc [3]: 0 mm
- zone of inhibition at 200 µg/disc [4, 7]: 0 mm
- zone of inhibition at 200 µg/disc [4, 8]: 0 mm

- MIC [1, 5]: > 250 µg/mL
Molecule: CCCCCS(=O)(=O)[O-].[Na+] [Sodium pentane sulphonate, sodium pentane sulphonate]
- MBC [2, 6]: > 250 µg/mL
- zone of inhibition at 200 µg/disc [3]: 0 mm
- zone of inhibition at 200 µg/disc [4, 7]: 0 mm
- zone of inhibition at 200 µg/disc [4, 8]: 0 mm

- MIC [1, 5]: 7.8 µg/mL
Molecule: CCCCCCCCCCCCCOS(=O)(=O)[O-].[Na+] [Sodium tridecyl sulphate, sodium tridecyl sulphate]
- MBC [2, 6]: 7.8 µg/mL
- MIC/MBC ratio [2]: 1
- zone of inhibition at 200 µg/disc [3]: 32.2 mm
- zone of inhibition at 200 µg/disc [4, 7]: 33.3 mm
- zone of inhibition at 200 µg/disc [4, 8]: 31.8 mm

- MIC [1, 5]: > 250 µg/mL
Molecule: CCCCCCCOS(=O)(=O)[O-].[Na+] [Sodium-n-heptyl sulphate, sodium-n-heptyl sulphate]
- MBC [2, 6]: > 250 µg/mL
- zone of inhibition at 200 µg/disc [3]: 0 mm
- zone of inhibition at 200 µg/disc [4, 7]: 0 mm
- zone of inhibition at 200 µg/disc [4, 8]: 0 mm

Molecule: CCCCCCCCCCCCOS(=O)(=O)O.NC(CO)(CO)CO [Trizma ® dodecyl sulphate, Trizma® (2-amino-2-(hydroxymethyl)-1,3-propanediol, alsoknownas ‘Tris’) dodecyl sulphate]
- MIC [1]: 31.25 µg/mL
- MIC/MBC ratio [2]: 0.5
- MBC [2]: 62.5 µg/mL
- DDA (diameter of zone of inhibition) [3]: 0.00 mm
- DDA + salt [4, 9]: 0.00 mm
- DDA + lipid [4, 10]: 0.00 mm

Molecule: triethanolamine lauryl sulphate [Triethanolamine dodecyl sulphate]
- MIC [1]: 3.9 µg/mL
- MIC/MBC ratio [2]: 0.25
- MBC [2]: 15.6 µg/mL
- DDA (diameter of zone of inhibition) [3]: 30.19 mm
- DDA + salt [4, 9]: 28.33 mm
- DDA + lipid [4, 10]: 25.53 mm
